Assay results as given in ChEMBL document CHEMBL3813667, “Triterpene sapogenin-polyarginine conjugates exhibit promising antibacterial activity against Gram-positive strains” (Bioorg Med Chem, 2016).
In brackets after ≈: the same amount, converted by molar mass. Activity calls are given as the source filed them. The calls are words filed in the database; no cut-off is given here.

Key:
[1] = Toxicity against human erythrocytes assessed as hemolysis after 1 hr by spectrophotometric analysis; assay type: cell-based, Erythrocyte
[2] = test system: Staphylococcus aureus; experiment: Antibacterial activity against Staphylococcus aureus ATCC 25923 after 16 hrs by broth microdilution method; assay type: functional; conditions: ATCC 25923, 16 h
[3] = test system: Escherichia coli; experiment: Antibacterial activity against Escherichia coli ATCC 25922 after 16 hrs by broth microdilution method; assay type: functional; conditions: ATCC 25922, 16 h
[4] = Metabolic stability in human plasma assessed as compound remaining after 6 hrs by HPLC analysis; assay type: ADME, cell-free; conditions: read-out: Stability
[5] = Therapeutic index, ratio of HC50 for human erythrocytes to MIC for Staphylococcus aureus ATCC 25923; conditions: read-out: TI
[6] = Therapeutic index, ratio of HC50 for human erythrocytes to MIC for Bacillus subtilis ATCC 6633; conditions: read-out: TI
[7] = Metabolic stability in human plasma assessed as compound remaining after 18 hrs by HPLC analysis; assay type: ADME, cell-free; conditions: read-out: Stability
[8] = test system: Bacillus spizizenii; experiment: Antibacterial activity against Bacillus subtilis ATCC 6633 after 16 hrs by broth microdilution method; assay type: functional; conditions: ATCC 6633, 16 h
[9] = Solubility of the compound in water at 40 mg sonicated for 15 mins at 25 degC measured after 5 hrs; assay type: physicochemical
[10] = test system: Staphylococcus aureus; experiment: Ratio of MIC for antibacterial activity against Staphylococcus aureus ATCC 25923 in absence of human plasma to MIC for antibacterial activity against Staphylococcus aureus ATCC 25923 in presence of human plasma; assay type: functional
[11] = test system: Staphylococcus aureus; experiment: Antibacterial activity against Staphylococcus aureus ATCC 25923 assessed as cell lysis at 4 times MIC after 2 hrs by transmission electron microscopic analysis; assay type: functional, organism-based
[12] = test system: Staphylococcus aureus; experiment: Antibacterial activity against Staphylococcus aureus ATCC 25923 at 1 mg/ml up to 18 hrs by broth microdilution method in presence of human plasma; assay type: functional; conditions: ATCC 25923, Plasma
[13] = test system: Staphylococcus aureus; experiment: Antibacterial activity against Staphylococcus aureus ATCC 25923 assessed as disruption of cell membrane at 4 times MIC after 2 hrs by DAPI/propidium iodide dye staining based confocal laser scanning microscopic analysis; assay type: functional, organism-based
[14] = test system: Staphylococcus aureus; experiment: Antibacterial activity against Staphylococcus aureus ATCC 25923 at 1 mg/ml after 3 hrs by broth microdilution method in presence of human plasma; assay type: functional; conditions: ATCC 25923, Plasma
[15] = Selectivity index, ratio of cytotoxicity for human MCF7 cells to MIC for Bacillus subtilis ATCC 6633; assay type: toxicity, cell-based; conditions: read-out: Selectivity Index
[16] = test system: MCF7; experiment: Cytotoxicity against human MCF7 cells assessed as cell viability at 62.5 ug/ml after 6 hrs by spectroscopic analysis; assay type: cell-based; conditions: mcf7, 6 h
[17] = test system: Escherichia coli; experiment: Antibacterial activity against Escherichia coli ATCC 25922 after 16 hrs by broth microdilution method in presence of peptide-R3; assay type: functional; conditions: ATCC 25922, 16 h
[18] = test system: Bacillus spizizenii; experiment: Antibacterial activity against Bacillus subtilis ATCC 6633 after 16 hrs by broth microdilution method in presence of peptide-R3; assay type: functional; conditions: ATCC 6633, 16 h
[19] = test system: Staphylococcus aureus; experiment: Antibacterial activity against Staphylococcus aureus ATCC 25923 after 16 hrs by broth microdilution method in presence of peptide-R3; assay type: functional; conditions: ATCC 25923, 16 h

MIC [2] | MIC [3] | remaining at 6 h [4] | remaining at 18 h [7] | MIC [8] | solubility at 5 h [9] | MIC [12] | MIC [14] | Compound | HC50 at 1 h [1] | selectivity ratio [5] | selectivity ratio [6] | Ratio [10] | Activity [11] | Activity [13] | selectivity ratio [15] | Activity [16] | MIC [17] | MIC [18] | MIC [19]
1.5 µM | 3.1 µM | 54% | 1% | 1.5 µM |  |  |  | H-GIGKFLKKAKKFGKAFVKILKK-OH | 153 µM | 100 | 100 |  |  |  |  |  |  |  | 
3.7 µM (≈ 3.94 µg/mL) | 14.7 µM (≈ 15.6 µg/mL) |  |  | 3.7 µM (≈ 3.94 µg/mL) | 98 mg/mL (≈ 92.1 mM) |  |  | C=C(C)[C@@H]1CC[C@]2(C(=O)OCc3cn(CC(=O)N[C@@H](CCCNC(=N)N)C(=O)N[C@@H](CCCNC(=N)N)C(=O)N[C@@H](CCCNC(=N)N)C(=O)O)nn3)CC[C@]3(C)[C@H](CC[C@@H]4[C@@]5(C)CC[C@H](O)C(C)(C)[C@@H]5CC[C@]43C)[C@@H]12 | 80 µM | 22 | 22 |  |  |  |  |  |  |  | 
5.7 µM (≈ 7.85 µg/mL) | > 91 µM |  |  | 2.8 µM (≈ 3.85 µg/mL) | 220 mg/mL (≈ 160 mM) |  |  | C=C(C)[C@@H]1CC[C@]2(C(=O)OCc3cn(CC(=O)N[C@@H](CCCNC(=N)N)C(=O)N[C@@H](CCCNC(=N)N)C(=O)N[C@@H](CCCNC(=N)N)C(=O)N[C@@H](CCCNC(=N)N)C(=O)N[C@@H](CCCNC(=N)N)C(=O)O)nn3)CC[C@]3(C)[C@H](CC[C@@H]4[C@@]5(C)CC[C@H](O)C(C)(C)[C@@H]5CC[C@]43C)[C@@H]12 | 35 µM | 6 | 12 |  |  |  |  |  |  |  | 
 |  |  |  |  | 636 mg/mL (≈ 345 mM) |  |  | C=C(C)[C@@H]1CC[C@]2(C(=O)OCc3cn(CC(=O)N[C@@H](CCCNC(=N)N)C(=O)N[C@@H](CCCNC(=N)N)C(=O)N[C@@H](CCCNC(=N)N)C(=O)N[C@@H](CCCNC(=N)N)C(=O)N[C@@H](CCCNC(=N)N)C(=O)N[C@@H](CCCNC(=N)N)C(=O)N[C@@H](CCCNC(=N)N)C(=O)N[C@@H](CCCNC(=N)N)C(=O)O)nn3)CC[C@]3(C)[C@H](CC[C@@H]4[C@@]5(C)CC[C@H](O)C(C)(C)[C@@H]5CC[C@]43C)[C@@H]12 | 55 µM | 13 | 13 |  |  |  |  |  |  |  | 
3.5 µM (≈ 3.87 µg/mL) | > 113 µM |  | 87% | 1.8 µM (≈ 1.99 µg/mL) |  | 3.5 µM | 3.5 µM | C=C(C)[C@@H]1CC[C@]2(C(=O)O)CC[C@]3(C)[C@H](CC[C@@H]4[C@@]5(C)CC[C@H](OC(=O)CCc6cn(CC(=O)N[C@@H](CCCNC(=N)N)C(=O)N[C@@H](CCCNC(=N)N)C(=O)N[C@@H](CCCNC(=N)N)C(=O)O)nn6)C(C)(C)[C@@H]5CC[C@]43C)[C@@H]12 | 215 µM | 62 | 125 | 2 | Active | Active | 20 | Non-toxic |  |  | 

Compound | MIC [2] | MIC [3] | remaining at 6 h [4] | remaining at 18 h [7] | MIC [8] | solubility at 5 h [9] | MIC [12] | MIC [14] | HC50 at 1 h [1] | selectivity ratio [5] | selectivity ratio [6] | Ratio [10] | Activity [11] | Activity [13] | selectivity ratio [15] | Activity [16] | MIC [17] | MIC [18] | MIC [19]
C=C(C)[C@@H]1CC[C@]2(C(=O)O)CC[C@]3(C)[C@H](CC[C@@H]4[C@@]5(C)CC[C@H](O)C(C)(C)[C@@H]5CC[C@]43C)[C@@H]12 [BETULINIC ACID] | 547 µM (≈ 250 µg/mL) | > 1100 µM |  |  | 547 µM (≈ 250 µg/mL) |  |  |  |  |  |  |  |  |  |  |  | > 531 µM | > 531 µM | > 531 µM
